In article PMC10616419 (The Journal of Biological Chemistry, 2023):
“And” between values parts separate entries of the source, which are not always exact repeats. Equal entries are not always repeated. Where two headings read alike, the source gives them in different places.

What was measured:
[1] = biological target: T1, YYYA concatemer rat TRPV1 (single Y511A mutant binding site) (Rattus norvegicus, UniProt O35433, Y511A); details: cited from earlier work
T1 construct: expressed in transfected cells; host or cells: TSA201 (HEK293T) cells, transient transfection; excised inside-out patches

TRPV1 [2] = format: cell-based
TRPV1 [3] = biological target: TRPV1 (Rattus norvegicus, UniProt O35433, Y511A); details: cited from earlier work
TRPV1 [4] = biological target: TRPV1 (Rattus norvegicus, UniProt O35433); details: cited from earlier work
[5] = biological target: T2, YYAA concatemer rat TRPV1 (two Y511A mutant subunits) (Rattus norvegicus, UniProt O35433, Y511A); format: cell-based
T2 construct: expressed in transfected cells; host or cells: TSA201 (HEK293T) cells, transient transfection; excised inside-out patches

[6] = biological target: T3, Y511A mutant subunit of rat TRPV1 (YYYA and YYAA concatemers) (Rattus norvegicus, UniProt O35433, Y511A); format: cell-based
T3 construct: expressed in transfected cells; host or cells: TSA201 (HEK293T) cells, transient transfection

wildtype mouse TRPV1 = biological target: T4, wildtype mouse TRPV1 (Mus musculus, UniProt Q704Y3); assay: cell-based; format: cell-based
T4 construct: expressed in transfected cells; host or cells: TSA201 (HEK293T) cells, transient transfection

Y512A mutant mouse TRPV1 [7] = biological target: T5, Y512A mutant mouse TRPV1 (Mus musculus, UniProt Q704Y3, Y512A); assay: cell-based; format: cell-based
T5 construct: expressed in transfected cells; host or cells: TSA201 (HEK293T) cells, transient transfection

[8] = biological target: T1, YYYA concatemer rat TRPV1 (single Y511A mutant binding site); format: cell-based
TRPV1 [9] = details: cited from earlier work
Y512A mutant mouse TRPV1 [10] = biological target: T5, Y512A mutant mouse TRPV1; details: cited from earlier work
[11] = biological target: T6, wildtype (Y) subunit of rat TRPV1 concatemers (Rattus norvegicus, UniProt O35433); format: cell-based
T6 construct: expressed in transfected cells; host or cells: TSA201 (HEK293T) cells, transient transfection

[12] = test system: Y511A mutant subunit of rat TRPV1 (YYYA and YYAA concatemers); format: cell-based
[13] = biological target: T7, Y511A (A) mutant subunit of rat TRPV1 concatemers (Rattus norvegicus, UniProt O35433, Y511A); format: cell-based
T7 construct: expressed in transfected cells; host or cells: TSA201 (HEK293T) cells, transient transfection
T7 sequence (O35433 whole entry Y511A): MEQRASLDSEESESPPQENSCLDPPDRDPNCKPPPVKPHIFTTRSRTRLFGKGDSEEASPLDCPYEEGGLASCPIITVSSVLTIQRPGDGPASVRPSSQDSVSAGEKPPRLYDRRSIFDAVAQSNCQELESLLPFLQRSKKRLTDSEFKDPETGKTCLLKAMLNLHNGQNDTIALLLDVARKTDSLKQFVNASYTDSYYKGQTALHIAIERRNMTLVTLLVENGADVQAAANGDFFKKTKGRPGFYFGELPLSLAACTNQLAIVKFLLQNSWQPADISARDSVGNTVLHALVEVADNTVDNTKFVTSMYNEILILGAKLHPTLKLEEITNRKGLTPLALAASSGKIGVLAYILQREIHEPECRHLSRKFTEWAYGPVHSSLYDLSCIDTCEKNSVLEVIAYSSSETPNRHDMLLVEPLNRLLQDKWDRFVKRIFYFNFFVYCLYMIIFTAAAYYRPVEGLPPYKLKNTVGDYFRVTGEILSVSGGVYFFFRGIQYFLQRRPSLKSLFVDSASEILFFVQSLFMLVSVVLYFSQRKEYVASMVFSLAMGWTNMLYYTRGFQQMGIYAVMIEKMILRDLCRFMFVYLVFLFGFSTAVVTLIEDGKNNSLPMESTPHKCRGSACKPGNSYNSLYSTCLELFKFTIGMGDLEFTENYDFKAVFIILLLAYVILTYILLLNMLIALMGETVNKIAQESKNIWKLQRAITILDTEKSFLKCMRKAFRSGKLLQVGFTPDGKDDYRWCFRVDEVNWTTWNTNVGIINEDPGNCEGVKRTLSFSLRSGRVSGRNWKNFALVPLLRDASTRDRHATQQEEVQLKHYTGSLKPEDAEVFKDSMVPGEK

T3 sequence (O35433 whole entry Y511A): as above
T3 sequence (O35433 whole entry partner): as the sequence (O35433 whole entry Y511A) above, with A511Y counted along it
T2 sequence (O35433 whole entry, stated change not applied): as the sequence (O35433 whole entry Y511A) above, with A511Y counted along it
T2 sequence (O35433 whole entry, stated change not applied): as the sequence (O35433 whole entry Y511A) above, with A511Y counted along it
T2 sequence (O35433 whole entry Y511A): as the sequence (O35433 whole entry Y511A) above
T2 sequence (O35433 whole entry Y511A): as above
T1 sequence (O35433 whole entry, stated change not applied): as the sequence (O35433 whole entry Y511A) above, with A511Y counted along it
T1 sequence (O35433 whole entry, stated change not applied): as the sequence (O35433 whole entry Y511A) above, with A511Y counted along it
T1 sequence (O35433 whole entry, stated change not applied): as the sequence (O35433 whole entry Y511A) above, with A511Y counted along it
T1 sequence (O35433 whole entry Y511A): as the sequence (O35433 whole entry Y511A) above
T4 sequence (Q704Y3 whole entry): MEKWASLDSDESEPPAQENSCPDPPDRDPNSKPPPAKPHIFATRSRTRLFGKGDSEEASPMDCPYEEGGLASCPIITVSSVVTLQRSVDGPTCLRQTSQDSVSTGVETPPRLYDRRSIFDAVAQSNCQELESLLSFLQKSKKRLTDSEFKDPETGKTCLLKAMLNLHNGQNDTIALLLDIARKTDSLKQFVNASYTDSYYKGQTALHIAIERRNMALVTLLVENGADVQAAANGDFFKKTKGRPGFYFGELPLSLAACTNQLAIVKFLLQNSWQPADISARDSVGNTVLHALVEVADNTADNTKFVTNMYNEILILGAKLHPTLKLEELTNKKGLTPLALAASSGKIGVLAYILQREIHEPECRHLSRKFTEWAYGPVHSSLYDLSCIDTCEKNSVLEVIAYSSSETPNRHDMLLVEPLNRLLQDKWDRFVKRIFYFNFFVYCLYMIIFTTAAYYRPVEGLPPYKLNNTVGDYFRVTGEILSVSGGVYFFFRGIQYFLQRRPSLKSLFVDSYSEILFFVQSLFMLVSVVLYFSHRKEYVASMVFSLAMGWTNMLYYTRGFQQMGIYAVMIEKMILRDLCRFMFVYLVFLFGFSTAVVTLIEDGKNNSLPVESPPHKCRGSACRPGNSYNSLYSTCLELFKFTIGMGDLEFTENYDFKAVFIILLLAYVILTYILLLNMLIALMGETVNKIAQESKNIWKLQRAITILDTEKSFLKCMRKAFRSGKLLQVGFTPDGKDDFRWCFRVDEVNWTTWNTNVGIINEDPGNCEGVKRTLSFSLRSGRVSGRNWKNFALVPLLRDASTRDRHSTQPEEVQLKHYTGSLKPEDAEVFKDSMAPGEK
T5 sequence (Q704Y3 whole entry Y512A): as the sequence (Q704Y3 whole entry) above, with Y512A counted along it
Sequence of TRPV1 (Rattus norvegicus, UniProt O35433, Y511A) (O35433 whole entry Y511A): as the sequence (O35433 whole entry Y511A) above
T6 sequence (O35433 whole entry): as the sequence (O35433 whole entry Y511A) above, with A511Y counted along it
Sequence of TRPV1 (Rattus norvegicus, UniProt O35433) (O35433 whole entry): as the sequence (O35433 whole entry Y511A) above, with A511Y counted along it

## C=C(C)[C@]12C[C@@H](C)[C@@]34O[C@](Cc5ccccc5)(O[C@@H]1[C@@H]3C=C(COC(=O)Cc1ccc(O)c(OC)c1)C[C@]1(O)C(=O)C(C)=C[C@@H]41)O2 [RTX, resiniferatoxin]
[1]
  Po with three RTX molecules bound: approximately 99%
TRPV1 [2]
  agonist type: full agonist
TRPV1 [3]
  binding reversibility: can be washed off
TRPV1 [4]
  binding reversibility: binds irreversibly
[5]
  L2, equilibrium constant before capsaicin: 0.97
  L2, equilibrium constant before capsaicin application: 0.96
  initial Po level with wildtype binding sites preloaded: approximately 50%
[6]
  L: 0.96
  L with two prebound RTX: 0.94

## NCCOB(c1ccccc1)c1ccccc1 [2-APB, 2-aminoethoxydiphenyl borate]
Wildtype mouse TRPV1
  activation after perfusing 6′-iRTX: could still activate these channels

## 6′-iodo-RTX [6′-iRTX]
TRPV1 [2]
  agonist type: weak agonist
Wildtype mouse TRPV1
  binding reversibility: binds irreversibly
  channel activity produced on perfusion: weak channel activities
Y512A mutant mouse TRPV1 [7]
  binding reversibility: could be washed off
[8]
  channel activation with three molecules bound: barely activated
TRPV1 [9]
  agonist type: weak partial agonist
[5]
  L2, equilibrium constant before capsaicin: 0.01
  L2, equilibrium constant before capsaicin application: 0.008
[6]
  L: 0.01
  L with three prebound 6′-iRTX: 0.02
  L with two prebound 6′-iRTX: 0.02

## COc1cc(CNC(=O)CCCC/C=C/C(C)C)ccc1O [capsaicin]
Y512A mutant mouse TRPV1 [10]
  EC50: 13 µM
[11]
  KY: 2.4e+06 M⁻¹
Wildtype mouse TRPV1
  EC50: 0.11 µM
  Kd: 0.244 µM
  activation after perfusing 6′-iRTX: lost its activation effect
  slope factor (Hill function): 1.3
Y512A mutant mouse TRPV1 [7]
  EC50: 22 µM
  Kd: 52.6 µM
  slope factor (Hill function): 2.3
[8]
  Hill slope: 0.96
[5]
  Hill slope: 0.88
  Po reached on application of capsaicin: ~100%
  a factor (cooperativity between the two capsaicin binding steps; 0.25 = independent): 0.27
  cooperative factor f: 8.9 and 11.8
[12]
  capsaicin association constant K: 49000 M⁻¹
  cooperative factor f: 8.0
[6]
  cooperative factor f: 12.1 and 8.9
[13]
  fA: 12.9
